# Test results: ChEMBL document CHEMBL1240397, “Amodiaquine dosage and tolerability for intermittent preventive treatment to prevent malaria in children” (Antimicrob Agents Chemother, 2010)
# Legend:
# Type in all cases: organism-based
# Conditions in all cases: in vivo, po
# Homo sapiens [1] = test: Toxicity in children with malaria over 2 years of age assessed as incidence of rashes at >=15 mg/kg/day, perorally co-treated with 500 mg sulfalene/25 mg pyrimethamine
# Homo sapiens [2] = test: Toxicity in children with malaria over 2 years of age assessed as incidence of itching at >=15 mg/kg/day, perorally co-treated with 500 mg sulfalene/25 mg pyrimethamine
# Homo sapiens [3] = test: Toxicity in children with malaria assessed as febrile incidence at 15-17 mg/kg/day, perorally and co-treated with sulfadoxine and pyrimethamine during intermittent preventive treatment to prevent malaria in children regimen
# Homo sapiens [4] = test: Toxicity in children with malaria over 2 years of age assessed as incidence of fever at >=15 mg/kg/day, perorally co-treated with 500 mg sulfalene/25 mg pyrimethamine
# Homo sapiens [5] = test: Toxicity in children with malaria assessed as incidence of vomiting at <15 mg/kg/day, perorally and co-treated with sulfadoxine and pyrimethamine during intermittent preventive treatment to prevent malaria in children regimen
# Homo sapiens [6] = test: Toxicity in children with malaria over 2 years of age assessed as incidence of headache at >=15 mg/kg/day, perorally co-treated with 500 mg sulfalene/25 mg pyrimethamine
# Homo sapiens [7] = test: Toxicity in children with malaria assessed as incidence of rashes at 15-17 mg/kg/day, perorally and co-treated with sulfadoxine and pyrimethamine during intermittent preventive treatment to prevent malaria in children regimen
# Homo sapiens [8] = test: Toxicity in children with malaria assessed as incidence of rashes at <15 mg/kg/day, perorally and co-treated with sulfadoxine and pyrimethamine during intermittent preventive treatment to prevent malaria in children regimen
# Homo sapiens [9] = test: Toxicity in children with malaria assessed as febrile incidence at <15 mg/kg/day, perorally and co-treated with sulfadoxine and pyrimethamine during intermittent preventive treatment to prevent malaria in children regimen
# Homo sapiens [10] = test: Toxicity in children with malaria under 2 years of age assessed as incidence of headache administered with 250 mg sulfalene/12.5 mg pyrimethamine on first day followed by compound treatment at <=15 mg/kg/day, perorally
# Homo sapiens [11] = test: Toxicity in children with malaria under 2 years of age assessed as incidence of vomiting administered with 250 mg sulfalene/12.5 mg pyrimethamine on first day followed by compound treatment at <=15 mg/kg/day, perorally
# Homo sapiens [12] = test: Toxicity in children with malaria over 2 years of age assessed as incidence of vomiting at >=15 mg/kg/day, perorally co-treated with 500 mg sulfalene/25 mg pyrimethamine
# Homo sapiens [13] = test: Toxicity in children with malaria assessed as incidence of rashes at 17-19 mg/kg/day, perorally and cotreated with Sulfadoxine and pyrimethamine during intermittent preventive treatment to prevent malaria in children regimen
# Homo sapiens [14] = test: Toxicity in children with malaria assessed as febrile incidence at 17-19 mg/kg/day, perorally and cotreated with Sulfadoxine and pyrimethamine during intermittent preventive treatment to prevent malaria in children regimen
# Homo sapiens [15] = test: Toxicity in children with malaria under 2 years of age assessed as incidence of rashes administered with 250 mg sulfalene/12.5 mg pyrimethamine on first day followed by compound treatment at <=15 mg/kg/day, perorally
# Homo sapiens [16] = test: Toxicity in children with malaria assessed as febrile incidence at >19 mg/kg/day, perorally and co-treated with sulfadoxine and pyrimethamine during intermittent preventive treatment to prevent malaria in children regimen
# Homo sapiens [17] = test: Toxicity in children with malaria assessed as incidence of vomiting at 15-17 mg/kg/day, perorally and cotreated with Sulfadoxine and pyrimethamine during intermittent preventive treatment to prevent malaria in children regimen
# Homo sapiens [18] = test: Toxicity in children with malaria under 2 years of age assessed as incidence of itching administered with 250 mg sulfalene/12.5 mg pyrimethamine on first day followed by compound treatment at <=15 mg/kg/day, perorally
# Homo sapiens [19] = test: Toxicity in children with malaria under 2 years of age assessed as incidence of fever administered with 250 mg sulfalene/12.5 mg pyrimethamine on first day followed by compound treatment at <=15 mg/kg/day, perorally
# Homo sapiens [20] = test: Toxicity in children with malaria assessed as incidence of rashes at >19 mg/kg/day, perorally and co-treated with sulfadoxine and pyrimethamine during intermittent preventive treatment to prevent malaria in children regimen
smiles,measurement,setting,value
CCN(CC)Cc1cc(Nc2ccnc3cc(Cl)ccc23)ccc1O.Cl,Activity,Homo sapiens [1],1.9%
same,Activity,Homo sapiens [2],3.8%
same,Activity,Homo sapiens [3],10.7%
same,Activity,Homo sapiens [4],29.8%
same,Activity,Homo sapiens [5],7%
same,Activity,Homo sapiens [6],5.8%
same,Activity,Homo sapiens [7],0%
same,Activity,Homo sapiens [8],0.8%
same,Activity,Homo sapiens [9],6.3%
same,Activity,Homo sapiens [10],9.6%
same,Activity,Homo sapiens [11],26.4%
same,Activity,Homo sapiens [12],41.3%
same,Activity,Homo sapiens [13],0.8%
same,Activity,Homo sapiens [14],9.9%
same,Activity,Homo sapiens [15],1.9%
same,Activity,Homo sapiens [16],21.7%
same,Activity,Homo sapiens [17],9.2%
same,Activity,Homo sapiens [18],1.9%
same,Activity,Homo sapiens [19],26.4%
same,Activity,Homo sapiens [20],2.2%
